Columns and labels:
Assay type in all cases: cell-based
[1] = system: V-ATPase; assay: V-ATPase ELISA (Human V-Type Proton ATPase ELISA kit) on treated MDAMB231 cells; conditions: 100 nM (0.1 μM)/10,000 cells, 48 hours
Experimental: An ELISA test was performed using Human V-Type Proton ATPase ELISA kit (My BioSource Catlog no: MBS911862) to determine the V-ATPase inhibitory effect of the compounds of the present invention.
Procedure: 1.0 million cells of MDAMB231 (cell line rich in V-ATPase) were plated on 60 mm plates for 24 hours at 37° C. and 5% CO2. The cells were treated with the test compounds (Formula A to U) at a concentration of 100 nM (0.1 μM)/10,000 cells and incubated for 48 hours. After incubation the supernatant was discarded, the cells were washed with D.P.B.S. (Dulbecco's phosphate-buffered saline), scraped and stored at −80° C. for 48 hours. The cells were thawed, vortexed, homogenized for 7 minutes, followed by centrifugation for 3 minutes at 3000 R.P.M. The supernatant was taken for V-ATPase Assay.
Standards and samples were pipetted into the wells. Antibody specific for V-ATPase was pre-coated onto a microplate. Any V-ATPase present in the standard /sample would get bound by the immobilized antibody. After the incubation period any unbound substances were removed by washing and a biotin-conjugated antibody specific for V-ATPase was added to the wells and plates were re-incubated at 37° C. and 5% CO2. After washing, avidin conjugated Horseradish Peroxidase (HRP) was added to the wells. Following a wash to remove any unbound avidin-enzyme reagent, a substrate solution was added to the wells and colour developed was in proportion to the amount of V-ATPase bound in the initial step. The colour development was stopped, and the optical density was measured at 450 nm spectrophotometrically. The concentration of V-ATPase was then calculated by substituting the optical density in the regression equation obtained from the standards. Percent (%) reduction in V-ATPase was calculated by subtracting the amount of V-ATPase obtained from the untreated/conc. of V-ATPase in untreated X100.

[2] = system: Human Peripheral Blood Lymphocytes; assay: MTT toxicity assay on normal cells; conditions: 48 hours
Experimental: Toxicity studies of compounds of the present invention on normal cells The toxicity study was performed on Human Peripheral Blood Lymphocytes obtained differential centrifugation of defibrinated blood. MTT assay for compound of the present invention was performed to determine its toxicity. MTT assay is a simple and sensitive assay where, metabolic reducing activity of the cells is measured. It was carried out in the following manner.
A required volume of cell suspension was prepared as per the cell plating efficiency. 200 μl of prepared cell suspension was added in labelled 96 well plates and the plates were placed in an incubator for 18-24 hours at 37° C. and 5% CO2. Then, 2 μl of respective compound dilution was added and the plates were placed in the incubator for 48 hours at 37° C. and 5% CO2. The suspension was aspirated from the plates and 100 μl of working MTT solution (0.5 mg/ml MTT prepared from 5 mg/ml MTT stock in 1× complete media) was added. The plates were incubated in the incubator for 4 hours at 37° C. and 5% CO2. The plates were spinned down, supernatant removed, 200 μl DMSO was added, mixed gently and placed in the incubator for 10 minutes at 37° C. and 5% CO2. The absorbance at 570 nm was read and percentage viability and IC50 value of the compounds was calculated using regression analysis.

[3] = system: SARS-CoV-2; assay: Neutral Red reduction of virus-induced cytopathic effect (primary CPE assay) in Vero 76 cells; conditions: Severe acute respiratory syndrome coronavirus 2, virus-inhibitory
[4] = Neutral Red toxicity assay, uninfected cultures; conditions: African green monkey, Vero 76 cells (uninfected monolayers), cell-inhibitory
Experimental: Confluent or near-confluent cell culture monolayers of Vero 76 cells were prepared in 96-well disposable microplates the day before testing. Cells were maintained in MEM (Minimum Essential Medium Eagle) supplemented with 5% FBS (Fetal Bovine Serum). For antiviral assays the same medium was used but with FBS reduced to 2% and supplemented with 50-μg/ml gentamicin.
Compounds were dissolved in DMSO, saline or the diluent. […] The test compound was prepared at four serial log10 concentrations, usually 0.1, 1.0, 10, and 100 μg/ml or μM. Lower concentrations were used when insufficient compound was supplied. Five microwells were used per dilution: three for infected cultures and two for uninfected toxicity cultures. Controls for the experiment consisted of six microwells that were infected and not treated (virus controls) and six that were untreated and uninfected (cell controls) on every plate. A known active drug was tested in parallel as a positive control drug using the same method as was applied for test compounds. The positive control was tested with every test run.
Growth media was removed from the cells and the test compound was applied in 0.1 ml volume to wells at 2× concentration. Virus, normally at ˜60 CCID50 (50% cell culture infectious dose) in 0.1 ml volume is added to the wells designated for virus infection. Medium devoid of virus was placed in toxicity control wells and cell control wells. […] The plates were then stained with 0.011% neutral red for approximately two hours at 37° C. in a 5% CO2 incubator. The neutral red medium was removed by complete aspiration, and the cells may be rinsed 1× with phosphate buffered solution (PBS) to remove residual dye. The PBS was completely removed, and the incorporated neutral red was eluted with 50% Sorensen's citrate buffer/50% ethanol for at least 30 minutes. Neutral red dye penetrates into living cells, thus, the more intense the red color, the larger the number of viable cells present in the wells. The dye content in each well was quantified using a spectrophotometer at 540 nm wavelength. The dye content in each set of wells was converted to a percentage of dye present in untreated control wells using a Microsoft Excel computer-based spreadsheet and normalized based on the virus control. The 50% effective (EC50, virus-inhibitory) concentrations and 50% cytotoxic (CC50, cell-inhibitory) concentrations are then calculated by regression analysis. The quotient of CC50 divided by EC50 gives the selectivity index (SI) value.

Compound: COc1cccc(-c2ccc(OCCN3CCOCC3)c3ccccc23)c1 [Compound of Formula P, 4-(2-(1-(3-methoxyphenyl)naphthalen-4-yloxy)ethyl)morpholine]
- reduction of V-ATPase (%) [1]: 18.27%
- IC50 (μM) [2]: No activity (Nontoxic)

Compound: COc1cc2c(OCCCCN3CCOCC3)c3c(c(-c4ccc5c(c4)OCO5)c2cc1OC)C(=O)OC3 [Compound of Formula L, 4-(4-morpholinobutoxy)-9-(benzo[d][1,3]dioxol-5-yl)-6,7-dimethoxynaphtho[2,3-c]furan-1(3H)-one]
- EC50 [3]: > 0.34 µg/mL
- reduction of V-ATPase (%) [1]: 21.0%
- IC50 (μM) [2]: No activity (Nontoxic)
- CC50 [4]: 0.34 µg/mL

Compound: COc1ccc(-c2ccc(OCCN3CCOCC3)c3ccccc23)cc1OC [Compound of Formula U, 4-(2-(1-(3,4-dimethoxyphenyl)naphthalen-4-yloxy)ethyl)morpholine]
- reduction of V-ATPase (%) [1]: 16.57%
- IC50 (μM) [2]: No activity (Nontoxic)

Compound: c1cc2c(cc1-c1ccc(OCCCCCCNC3CCCCC3)c3c1CCCC3)OCO2 [Compound of Formula Q, N-(6-(5-(benzo[d][1,3]dioxol-5-yl)-1,2,3,4-tetrahydronaphthalen-8-yloxy)hexyl)cyclohexanamine]
- reduction of V-ATPase (%) [1]: 77.42%

Compound: COc1cc2c(OC3OCC(OC)C(OC)C3O)c3c(c(-c4ccc5c(c4)OCO5)c2cc1OC)C(=O)OC3 (stereo not drawn) [Compound of Formula A, 9-(benzo[d][1,3]dioxol-5-yl)-6,7-dimethoxy-4-(tetrahydro-3-hydroxy-4,5-dimethoxy-2H-pyran-2-yloxy)naphtho[2,3-c]furan-1(3H)-one]
- EC50 [3]: > 0.1 µg/mL
- reduction of V-ATPase (%) [1]: 13.31%
- CC50 [4]: < 0.1 µg/mL

Compound: COc1cc2c(OC(=O)C(c3ccccc3)C3CCCC3)c3c(c(-c4ccc5c(c4)OCO5)c2cc1OC)C(=O)OC3 (stereo not drawn) [Compound of Formula C, 9-(benzo[d][1,3]dioxol-5-yl)-1,3-dihydro-6,7-dimethoxy-1-oxonaphtho[2,3-c]furan-4-yl 2-cyclopentyl-2-phenylacetate]
- reduction of V-ATPase (%) [1]: 14.69%
- IC50 (μM) [2]: No activity (Nontoxic)

Compound: O=C(Nc1ccc(-c2ccc3c(c2)OCO3)c2ccccc12)c1ccco1 [Compound of Formula G, N-(1-(benzo[d][1,3]dioxol-5-yl)naphthalen-4-yl)furan-2-carboxamide]
- reduction of V-ATPase (%) [1]: 62.37%

Compound: CCOC(=O)c1c(C(=O)OCC)c(-c2ccc3c(c2)OCO3)c2cc(OC)c(OC)cc2c1OC1OCC(OC)C(OC)C1O (stereo not drawn) [Compound of Formula D, diethyl 1-(benzo[d][1,3]dioxol-5-yl)-6,7-dimethoxy-4-(tetrahydro-3-hydroxy-4,5-dimethoxy-2H-pyran-2-yloxy)naphthalene-2,3-dicarboxylate]
- EC50 [3]: 32 µg/mL
- reduction of V-ATPase (%) [1]: 18.2%
- IC50 (μM) [2]: No activity (Nontoxic)
- CC50 [4]: 40 µg/mL

Compound: c1ccc2c(-c3ccc4c(c3)OCO4)ccc(OCCCCN3CCOCC3)c2c1 [Compound of Formula M, 4-(4-(1-(benzo[d][1,3]dioxol-5-yl)naphthalen-4-yloxy)butyl)morpholine]
- reduction of V-ATPase (%) [1]: 76.16%

Compound: O=C(CN1CCNCC1)NCCOc1ccc(-c2ccc3c(c2)OCO3)c2ccccc12 [Compound of Formula T, N-(2-(1-(benzo[d][1,3]dioxol-5-yl)naphthalen-4-yloxy)ethyl)-2-(piperazin-1-yl)acetamide]
- reduction of V-ATPase (%) [1]: 81.9%

Compound: O=S(=O)(Nc1ccc(-c2ccc3c(c2)OCO3)c2ccccc12)c1ccc(F)cc1 [Compound of Formula J, N-(1-(benzo[d][1,3]dioxol-5-yl)naphthalen-4-yl)-4-fluorobenzenesulphonamide]
- reduction of V-ATPase (%) [1]: 60.96%

Compound: O=S(=O)(Nc1ccc(-c2ccc3c(c2)OCO3)c2ccccc12)c1ccccc1 [Compound of Formula I, N-(1-(benzo[d][1,3]dioxol-5-yl)naphthalen-4-yl)benzenesulphonamide]
- reduction of V-ATPase (%) [1]: 20.56%
- IC50 (μM) [2]: No activity (Nontoxic)

Compound: c1ccc(COc2ccc(-c3ccc4c(c3)OCO4)c3cccnc23)cc1 [Compound of Formula H, 5-(benzo[d][1,3]dioxol-5-yl)-8-(benzyloxy)quinoline]
- reduction of V-ATPase (%) [1]: 61.34%

Compound: COc1cc2c(OC(=O)c3cccn3C)c3c(c(-c4ccc5c(c4)OCO5)c2cc1OC)C(=O)OC3 [Compound of Formula B, 9-(benzo[d][1,3]dioxol-5-yl)-1,3-dihydro-6,7-dimethoxy-1-oxonaphtho[2,3-c]furan-4-yl 1-methyl-1H-pyrrole-2-carboxylate]
- reduction of V-ATPase (%) [1]: 15.33%
- IC50 (μM) [2]: No activity (Nontoxic)

Compound: C=CCNCCCCCCOc1ccc(-c2ccc3c(c2)OCO3)c2c1CCCC2 [Compound of Formula R, 6-(5-(benzo[d][1,3]dioxol-5-yl)-1,2,3,4-tetrahydronaphthalen-8-yloxy)-N-allylhexan-1-amine]
- reduction of V-ATPase (%) [1]: 16.2%

Compound: c1ccc2c(-c3ccc4c(c3)OCO4)ccc(OCCN3CCOCC3)c2c1 [Compound of Formula O, 4-(2-(1-(benzo[d][1,3]dioxol-5-yl)naphthalen-4-yloxy)ethyl)morpholine]
- reduction of V-ATPase (%) [1]: 20.26%
- IC50 (μM) [2]: No activity (Nontoxic)

Compound: O=C(CN1CCNCC1)Nc1ccc(-c2ccc3c(c2)OCO3)c2ccccc12 [Compound of Formula K, N-(1-(benzo[d][1,3]dioxol-5-yl)naphthalen-4-yl)-2-(piperazin-1-yl)acetamide]
- reduction of V-ATPase (%) [1]: 28.05%

Compound: c1cnc2c(OCCN3CCOCC3)ccc(-c3ccc4c(c3)OCO4)c2c1 [Compound of Formula S, 8-(2-morpholinoethoxy)-5-(benzo[d][1,3]dioxol-5-yl)quinoline]
- reduction of V-ATPase (%) [1]: 75.5%

Compound: c1ccc2c(-c3ccc4c(c3)OCO4)ccc(OCCCCNC3CCCCC3)c2c1 [Compound of Formula N, N-(4-(1-(benzo[d][1,3]dioxol-5-yl)naphthalen-4-yloxy)butyl)cyclohexanamine]
- reduction of V-ATPase (%) [1]: 6.3%

Compound: O[C@H]1[C@H](O)COC(Oc2ccc(-c3ccc4c(c3)OCO4)c3ccccc23)[C@@H]1O (stereo partly drawn) [Compound of Formula F, (3R,4S,5R)-2-(1-(benzo[d][1,3]dioxol-5-yl)naphthalen-4-yloxy)-tetrahydro-2H-pyran-3,4,5-triol]
- EC50 [3]: 2.9 µg/mL
- reduction of V-ATPase (%) [1]: 61.0%
- CC50 [4]: 32 µg/mL

Source: US20230172958A1, “USE OF COMPOUNDS FOR TREATING VIRAL INFECTIONS” (priority 2020, published 2023)
